Measured values reported in patent US20240351997A1, “NOVEL PARP7 INHIBITOR AND USE THEREOF” (SHANGHAI QILU PHARMACEUTICAL RESEARCH AND DEVELOPMENT …, priority 2021, published 2024).

What follows are molecules tested against PARP7 (Homo sapiens (Human), UniProt Q7Z3E1) (assay: In vitro enzymology experiment of PARP7 (enzymatic inhibition)).
Assay type: biochemical
In short: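 Histone-coated plate ADP-ribosylation format: compound preincubated 10 min at room temperature with preincubated (25 °C, 10 min) enzyme mixture; incorporated biotin detected by streptavidin-HRP and QuantaRed fluorescence (Ex550/Em620).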

PARP7, sequence (Q7Z3E1 whole entry): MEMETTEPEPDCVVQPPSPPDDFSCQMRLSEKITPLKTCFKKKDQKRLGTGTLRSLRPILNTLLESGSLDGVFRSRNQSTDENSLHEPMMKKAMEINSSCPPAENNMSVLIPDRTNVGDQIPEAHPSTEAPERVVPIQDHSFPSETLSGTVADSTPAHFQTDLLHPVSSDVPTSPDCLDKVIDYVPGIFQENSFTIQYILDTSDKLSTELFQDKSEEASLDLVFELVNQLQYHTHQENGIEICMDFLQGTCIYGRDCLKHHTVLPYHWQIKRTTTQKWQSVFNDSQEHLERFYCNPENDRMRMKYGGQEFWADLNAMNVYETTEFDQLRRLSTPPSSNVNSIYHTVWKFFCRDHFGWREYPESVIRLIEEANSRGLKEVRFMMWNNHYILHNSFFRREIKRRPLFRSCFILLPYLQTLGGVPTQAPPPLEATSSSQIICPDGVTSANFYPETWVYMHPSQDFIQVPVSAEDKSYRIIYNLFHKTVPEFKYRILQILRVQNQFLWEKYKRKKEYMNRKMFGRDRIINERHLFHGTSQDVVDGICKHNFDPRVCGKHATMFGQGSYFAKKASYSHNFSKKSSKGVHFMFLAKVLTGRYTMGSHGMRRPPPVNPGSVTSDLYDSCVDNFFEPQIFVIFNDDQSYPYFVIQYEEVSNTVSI

Row | SMILES | IC50 [nM]
1 | Cc1cnc(N2C[C@@H](C)N(C(=O)OCCc3c[nH]c(=O)c(C(F)(F)F)c3)[C@@H](C)C2)nc1 [Example 163, 2-(6-Oxo-5-(trifluoromethyl)-1,6-dihydropyridin-3-yl)ethyl (2R,6S)-2,6-dimethyl-4-(5-methylpyrimidin-2-yl)piperazine-1-carboxylate] | 0.75
2 | C[C@@H](Cc1c[nH]c(=O)c(C(F)(F)F)c1)OC(=O)N1[C@@H](C)CN(c2ncc(C(F)(F)F)cn2)C[C@@H]1C [Example 159, (S)-1-(6-Oxo-5-(trifluoromethyl)-1,6-dihydropyridin-3-yl)propan-2-yl (2S,6S)-2,6-dimethyl-4-(5-(trifluoromethyl)pyrimidin-2-yl)piperazine-1-carboxylate] | 0.9
3 | CC(Cc1c[nH]c(=O)c(C(F)(F)F)c1)OC(=O)N1CCN(c2ncc(C(F)(F)F)cn2)CC1 (stereo not drawn) [Example 33, 1-(6-Oxo-5-(trifluoromethyl)-1,6-dihydropyridin-3-yl)propan-2-yl 4-(5-(trifluoromethyl)pyrimidin-2-yl)piperazine-1-carboxylate] | 0.9
4 | C[C@@H](Cc1c[nH]c(=O)c(C(F)(F)F)c1)OC(=O)N1CCN(c2ncc(F)cn2)CC1 [Example 65, (S)-1-(6-Oxo-5-(trifluoromethyl)-1,6-dihydropyridin-3-yl)propan-2-yl 4-(5-fluoropyrimidin-2-yl)piperazine-1-carboxylate] | 0.65
5 | O=C(CCOc1c[nH]c(=O)c(C(F)(F)F)c1)N1CCN(c2ncc(C(F)(F)F)cn2)CC1 [Example 17, 5-(3-Oxo-3-(4-(5-(trifluoromethyl)pyrimidin-2-yl)piperazin-1-yl)propoxy)-3-(trifluoromethyl)pyridin-2(1H)-one] | 2.79
6 | C[C@@H]1CN(c2ncc(C(F)(F)F)cn2)CCN1C(=O)Oc1cccc(-c2c[nH]c(=O)c(C(F)(F)F)c2)c1 [Example 140, 3-(6-Oxo-5-(trifluoromethyl)-1,6-dihydropyridin-3-yl)phenyl (R)-2-methyl-4-(5-(trifluoromethyl)pyrimidin-2-yl)piperazine-1-carboxylate] | 2.86
7 | O=C(OCCc1c[nH]c(=O)c(C(F)(F)F)c1)N1CCN(c2ccc(C(F)(F)F)cn2)CC1 [Example 106, 2-(6-Oxo-5-(trifluoromethyl)-1,6-dihydropyridin-3-yl)ethyl 4-(5-(trifluoromethyl)pyridin-2-yl)piperazine-1-carboxylate] | 0.46
8 | O=C(OCC1(c2c[nH]c(=O)c(C(F)(F)F)c2)CC1)N1CCN(c2ncc(C(F)(F)F)cn2)CC1 [Example 41, (1-(6-Oxo-5-(trifluoromethyl)-1,6-dihydropyridin-3-yl)cyclopropyl)methyl 4-(5-(trifluoromethyl)pyrimidin-2-yl)piperazine-1-carboxylate] | 1.1
9 | C[C@@H]1CN(c2ncc(C3CC3)cn2)C[C@H](C)N1C(=O)O[C@@H](C)Cc1c[nH]c(=O)c(C(F)(F)F)c1 [Example 174, (S)-1-(6-Oxo-5-(trifluoromethyl)-1,6-dihydropyridin-3-yl)propan-2-yl (2R,6S)-4-(5-cyclopropylpyrimidin-2-yl)-2,6-dimethylpiperazine-1-carboxylate] | 1.3

Continued by falling IC50, values first:

Row | IC50 [nM] | SMILES
10 | 5.98 | O=C(CCOCCN1CCCc2c1cn[nH]c2=O)N1CCN(c2ncc(C(F)(F)F)cn2)CC1 [Example 13, 1-(2-(3-Oxo-3-(4-(5-(trifluoromethyl)pyrimidin-2-yl)piperazin-1-yl)propoxy)ethyl)-2,3,4,6-tetrahydropyrido[2,3-d]pyridazin-5(1H)-one]
11 | 2.09 | CC(Cc1c[nH]c(=O)c(C(F)(F)F)c1)OC(=O)N1CCN(c2ccc(C(F)(F)F)cn2)CC1 (stereo not drawn) [Example 62, 1-(6-Oxo-5-(trifluoromethyl)-1,6-dihydropyridin-3-yl)propan-2-yl 4-(5-(trifluoromethyl)pyridin-2-yl)piperazine-1-carboxylate]
12 | 1.92 | O=C(Oc1ccccc1-c1c[nH]c(=O)c(C(F)(F)F)c1)N1CCN(c2ncc(C(F)(F)F)cn2)CC1 [Example 134, 2-(6-Oxo-5-(trifluoromethyl)-1,6-dihydropyridin-3-yl)phenyl 4-(5-(trifluoromethyl)pyrimidin-2-yl)piperazine-1-carboxylate]
13 | 1.2 | C[C@@H]1CN(c2ncc(C3CC3)cn2)[C@@H](C)CN1C(=O)OCCc1c[nH]c(=O)c(C(F)(F)F)c1 [Example 184, 2-(6-Oxo-5-(trifluoromethyl)-1,6-dihydropyridin-3-yl)ethyl (2R,5S)-4-(5-cyclopropylpyrimidin-2-yl)-2,5-dimethylpiperazine-1-carboxylate]
14 | 1.11 | O=C(c1ccc(F)c(Cc2c[nH]c(=O)c(C(F)(F)F)c2)c1)N1CCN(c2ncc(C(F)(F)F)cn2)CC1 [Example 68, 5-(2-Fluoro-5-(4-(5-(trifluoromethyl)pyrimidin-2-yl)piperazine-1-carbonyl)benzyl)-3-(trifluoromethyl)pyridin-2(1H)-one]
15 | 1.1 | C[C@@H]1CN(c2ncc(C3CC3)cn2)C[C@H](C)N1C(=O)OCCc1c[nH]c(=O)c(C(F)(F)F)c1 [Example 151, 2-(6-Oxo-5-(trifluoromethyl)-1,6-dihydropyridin-3-yl)ethyl (2R,6S)-4-(5-cyclopropylpyrimidin-2-yl)-2,6-dimethylpiperazine-1-carboxylate]
16 | 0.93 | O=C(OCCc1c[nH]c(=O)c(C(F)(F)F)c1)N1CCN(c2ncc(C3CCCCC3)cn2)CC1 [Example 118, 2-(6-Oxo-5-(trifluoromethyl)-1,6-dihydropyridin-3-yl)ethyl 4-(5-cyclohexylpyrimidin-2-yl)piperazine-1-carboxylate]
17 | 0.91 | C[C@@H]1CN(c2ncc(C(F)(F)F)cn2)[C@H](C)CN1C(=O)O[C@@H](C)Cc1c[nH]c(=O)c(C(F)(F)F)c1 [Example 161, (S)-1-(6-Oxo-5-(trifluoromethyl)-1,6-dihydropyridin-3-yl)propan-2-yl (2R,5R)-2,5-dimethyl-4-(5-(trifluoromethyl)pyrimidin-2-yl)piperazine-1-carboxylate]
18 | 0.9 | C[C@@H]1CN(C(=O)O[C@@H](C)Cc2c[nH]c(=O)c(C(F)(F)F)c2)C[C@@H](C)N1c1ncc(C(F)(F)F)cn1 [Example 157, (S)-1-(6-Oxo-5-(trifluoromethyl)-1,6-dihydropyridin-3-yl)propan-2-yl (3R,5R)-3,5-dimethyl-4-(5-(trifluoromethyl)pyrimidin-2-yl)piperazine-1-carboxylate]
19 | 0.78 | C[C@@H]1CN(c2ncc(C(F)(F)F)cn2)CCN1C(=O)O[C@@H](C)Cc1c[nH]c(=O)c(C(F)(F)F)c1 [Example 91, (S)-1-(6-Oxo-5-(trifluoromethyl)-1,6-dihydropyridin-3-yl)propan-2-yl (R)-2-methyl-4-(5-(trifluoromethyl)pyrimidin-2-yl)piperazine-1-carboxylate]
20 | 0.78 | Cc1cc(C(F)(F)F)cnc1N1CCN(C(=O)OCCc2c[nH]c(=O)c(C(F)(F)F)c2)CC1 [Example 132, 2-(6-Oxo-5-(trifluoromethyl)-1,6-dihydropyridin-3-yl)ethyl 4-(3-methyl-5-(trifluoromethyl)pyridin-2-yl)piperazine-1-carboxylate]
21 | 0.77 | O=C(OCCc1c[nH]c(=O)c(C(F)(F)F)c1)N1CCN(c2ncc(C(F)(F)F)cc2F)CC1 [Example 130, 2-(6-Oxo-5-(trifluoromethyl)-1,6-dihydropyridin-3-yl)ethyl 4-(3-fluoro-5-(trifluoromethyl)pyridin-2-yl)piperazine-1-carboxylate]
